Common to all, as to assay: 3xERE luciferase reporter activation, HEK293
One assay has as its target T1, SL ERβ (Panthera uncia, UniProt Z9GFH5XYU7).
T1 construct: full-length ESR2 ORF (1653 bp, about 550 aa), not codon-optimised, pcDNA3.1+, HEK293; residues S31, S40, I138, A147, G361, R433, Q550
The class given is cell-based. The note with it: agonist; 24 h, 37 °C; normalised to β-gal and maximal E2 activation; read-out: SL ER⍺ / EC50.

The next assay concerns T2, ST ERβ.
T2 construct: gene ESR2; full-length ESR2 ORF (1653 bp, about 550 aa), codon-optimised, pcDNA3.1+, HEK293; residues S31, S40, V138, A147, E361, R433, E550
The class given is cell-based, Panthera tigris sumatrae. To be noted: agonist, 24 h, 37 °C.

In another assay the target is T3, ST ERα (Panthera tigris, UniProt Z9XQL7S1Y6).
T3 construct: full-length ESR1 ORF (1788 bp, about 595 aa), codon-optimised, pcDNA3.1+, HEK293; residues S53, P76, T496, S585
T3 sequence (Z9XQL7S1Y6 1-595): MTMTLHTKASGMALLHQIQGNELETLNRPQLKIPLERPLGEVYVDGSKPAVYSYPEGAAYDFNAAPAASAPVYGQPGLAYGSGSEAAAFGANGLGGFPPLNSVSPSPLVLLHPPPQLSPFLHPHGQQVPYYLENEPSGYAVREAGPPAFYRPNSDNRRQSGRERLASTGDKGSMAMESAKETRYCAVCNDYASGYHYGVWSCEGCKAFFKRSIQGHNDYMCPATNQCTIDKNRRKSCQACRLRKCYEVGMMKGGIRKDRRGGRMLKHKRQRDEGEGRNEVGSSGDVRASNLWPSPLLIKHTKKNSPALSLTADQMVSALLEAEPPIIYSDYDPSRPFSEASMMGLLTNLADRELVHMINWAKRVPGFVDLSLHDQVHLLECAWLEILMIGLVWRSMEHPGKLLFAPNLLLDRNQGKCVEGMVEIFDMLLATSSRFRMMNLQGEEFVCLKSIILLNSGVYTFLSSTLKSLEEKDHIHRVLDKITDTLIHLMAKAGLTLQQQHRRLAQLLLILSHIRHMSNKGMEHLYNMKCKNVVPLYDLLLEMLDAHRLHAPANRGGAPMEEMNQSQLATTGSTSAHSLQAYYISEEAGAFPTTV
The assay is classed as cell-based.

A further assay has as its system T4, SL ERα.
T4 construct: gene ESR1; full-length ESR1 ORF (1788 bp, about 595 aa), codon-optimised, pcDNA3.1+, HEK293; residues S53, S76, T496, T585
The assay is classed as cell-based, Panthera uncia. To be noted: agonist, 24 h, 37 °C, corrected for constitutive activity.

[1] abbreviates: normalised to β-gal and maximal E2 activation, read-out: ST ER⍺ / EC50.
The mark [2] stands for this setting: normalised to β-gal and maximal E2 activation, read-out: SL ER⍺ / EC50.
The mark [3] stands for this setting: normalised to β-gal, read-out: EC50.

Like-named read-outs stand apart in the source and are kept apart here.

With `O=c1c(-c2ccc(O)cc2)coc2cc(O)cc(O)c12` [GEN, genistein], the EC50 was found to be 291 nM at SL ERβ, 22.3 nM in the assay on ST ERβ (setting [1]), 1890 nM at ST ERα (read-out: ST ER⍺ / EC50) and 1670 nM in the assay with SL ERα (setting [2]).

Take `O=c1oc2cc(O)ccc2c2oc3cc(O)ccc3c12` [COUM, coumestrol]: the EC50 amounted to 26 nM on SL ERβ, 8.17 nM in the assay with ST ERβ (setting [1]), 131 nM at ST ERα (read-out: ST ER⍺ / EC50) and 41.3 nM in the assay with SL ERα (setting [2]).

As to `O=c1c(-c2ccc(O)cc2)coc2cc(O)ccc12` [DAID, daidzein], the EC50 with ST ERβ (setting [1]) was determined as 793 nM.

Consider `C[C@]12CC[C@@H]3c4ccc(O)cc4CC[C@H]3[C@@H]1CC[C@@H]2O` [E2, 17β-estradiol], for which the results for the EC50 in the assay on ST ERβ (setting [3]), on ST ERα (read-out: EC50) and with SL ERα (setting [3]) were 0.041 nM, 0.00611 nM and 0.00969 nM, respectively.

The values are drawn from paper PMC12448638, “The association between diet estrogenicity in exotic felids and poor spermatozoa quality in tigers (Panthera tigris)” (Biology of Reproduction, 2025).
